Read-outs that look alike come from different tables or passages of the source. Marks after values point to notes of the source that are not given here.
Assays:
[1] = test system: 1X-Ab; assay: Competitive antigen ELISA, cross-reactivity of 1X-Ab; format: binding, rabbit; conditions: for % Cross-Reaction, 1X-Ab: competitive antigen ELISA, 0 = absence of inhibition or inhibition no higher than 40% at highest concentration tested (5 × 10^−6 M); for [1X] × 10^6 (M), 1X concentration determined by ELISA: fixed 1X 3×10^−6 M
Description: (§1) Buffers and water without additives are filtered through millipore filters and kept for 1 week. BSA, antibodies, Tween™ 20 and horse radish peroxidase conjugates are added to these buffers and water just prior to use. Urine samples are usually collected 4 hours after drinking a cup of coffee (instant or brewed with approximately 100 mg of caffeine per cup) and stored at −80° C. The urine samples are diluted 10 times with sodium phosphate buffer (620 mosm, pH 7.50) and are subsequently diluted with water to give- concentrations of AAMU and 1X no higher than 3×10^−6 M in the ELISA. All the pipettings are done with an eight-channel pipette, except those of the antibody and sample solutions. Starting with the last well, 100 μL of a carbonate buffer (100 mM, pH 9.6) containing 2.5 μg mL^−1 antibodies are added to each well. After 90 min. at room temperature, the wells are washed three times with […] of TPB: isotonic sodium phosphate buffer (310 mosm, pH 7.50) containing 0.05% Tween™ 20.
(§2) After the initial wash, unoccupied sites are blocked by incubation for 90 min. at room temperature with 100 μL TBP containing 3% BSA. The wells are washed four times with 100 μL TPB. […] The microplate is gently shaken with an orbital shaker at room temperature for 3-4 hours. The wells are washed three times with 100 μL TPB containing 1% BSA and three times with water containing 0.05% Tween™ 20. To the washed plate is added 150 μL of a substrate buffer composed of citric acid (25 mM) and sodium phosphate dibasic buffer (50 mM, pH 5.0) containing 0.06% hydrogen peroxide and 0.04% o-phenylenediamine hydrochloride.
(§3) Buffers and water without additives were filtered through millipore filters and kept for 1 week. BSA, antibodies, Tween™ 20 and horse radish peroxidase conjugates were added to these buffers and water just prior to use. Urine samples were usually collected 4 hours after drinking a cup of coffee (instant or brewed with approximately 100 mg of caffeine per cup) and stored at −80° C. They were diluted 10 times with sodium phosphate buffer (620 mosm, pH 7.50) and were subsequently diluted with water to give concentrations of AAMU and 1X no higher than 3×10^−6 M in the ELISA. All the pipettings were done with an eight-channel pipette, except those of the antibody and sample solutions. Starting with the last well, 100 μL of a carbonate buffer (100 mM, pH 9.6) containing 2.5 μg mL^−1 antibodies was pipetted. After 90 min. at room temperature, the wells were washed three times with 100 μL of TPB: isotonic sodium phosphate buffer (310 mosm, pH 7.50) containing 0.05% Tween™ 20.
(§4) After the initial wash, unoccupied sites were blocked by incubation for 90 min. at room temperature with 100 μL TBP containing 3% BSA. The wells were washed four times with 100 μL TPB. […] The microplate was gently shaken with an orbital shaker at room temperature for 3-4 hours. The wells were washed three times with 100 μL with TPB containing 1% BSA and three times with water containing 0.05% Tween™ 20. To the washed plate was added 150 μL of a substrate buffer composed of citric acid (25 mM) and sodium phosphate dibasic buffer (50 mM, pH 5.0) containing 0.06% hydrogen peroxide and 0.04% o-phenylenediamine hydrochloride. After 20 min. at room temperature with shaking, the reaction was stopped with 50 μL of 2.5 N HCl.

[2] = test system: AAMU-Ab; assay: Competitive antigen ELISA, cross-reactivity of AAMU-Ab; format: binding, rabbit; conditions: 0 = absence of inhibition or inhibition no higher than 40% at highest concentration tested (5 × 10^−6 M)
Description: as §1, §2, §3, §4

[3] = test system: poor vs. extensive metabolizers; conditions: cited from earlier work
[4] = test system: CYP2C9; conditions: cited from earlier work
[5] = test system: coronary artery patency; conditions: Heparin-Aspirin Reperfusion Trial, after TPA; aspirin 80 mg per day; cited from earlier work
[6] = test system: slow and fast acetylators; conditions: cited from earlier work
[7] = test system: individuals with deep vein thrombosis; conditions: Hull 1979; proximal DVT, 3 months; heparin 5,000 units sc every 12 hours, sodium warfarin INR 2.5 to 4.5; cited from earlier work
[8] = test system: surgical and medical individuals; conditions: individuals with hip fracture, begun preoperatively; cited from earlier work
[9] = test system: individuals with evolving myocardial infarction; conditions: cited from earlier work; for combined incidence of death or nonfatal hemorrhagic stroke: TPA group vs groups receiving streptokinase
[10] = test system: individuals with acute myocardial infarction; conditions: cited from earlier work
[11] = test system: individuals with acute myocardial infarction; conditions: in vivo; cited from earlier work
[12] = cited from earlier work
[13] = individuals who died before heparin was started excluded

## Cn1c(=O)c2c(ncn2C)n(C)c1=O [1,3,7-Trimethyl Xanthine (Caffeine), 1,3,7-Trimethyl Xanthine]
[1]
  % Cross-Reaction, 1X-Ab: 0%
[2]
  % Cross-Reaction, AAMU-Ab: 0%

## Cn1c(=O)c2[nH]cnc2n(C)c1=O [1,3-Dimethyl Xanthine (Theophylline), 1,3-Dimethyl Xanthine]
[1]
  % Cross-Reaction, 1X-Ab: 0.2%
[2]
  % Cross-Reaction, AAMU-Ab: 0%

## Cn1c(=O)[nH]c2ncn(C)c2c1=O [1,7-Dimethyl Xanthine (Paraxanthine), 1,7-Dimethyl Xanthine]
[1]
  % Cross-Reaction, 1X-Ab: 0.5%
[2]
  % Cross-Reaction, AAMU-Ab: 0%

## Cn1c(=O)[nH]c2[nH]c(=O)n(C)c2c1=O [1,7-Dimethyluric acid]
[1]
  % Cross-Reaction, 1X-Ab: 0%
[2]
  % Cross-Reaction, AAMU-Ab: 0%

## Cn1c(=O)[nH]c2nc[nH]c2c1=O [1-Methyl Xanthine (1X), 1-Methyl Xanthine]
[1]
  % Cross-Reaction, 1X-Ab: 100%
[2]
  % Cross-Reaction, AAMU-Ab: 0%

## Cn1c(=O)[nH]c2[nH]c(=O)[nH]c2c1=O [1-Methyluric acid]
[1]; 1U:1X ratio 0.50
  [1X] × 10^6 (M), 1X concentration determined by ELISA: 2.75 × 10^6 (M)
[1]; 1U:1X ratio 1.00
  [1X] × 10^6 (M), 1X concentration determined by ELISA: 3.25 × 10^6 (M)
[1]; 1U:1X ratio 1.50
  [1X] × 10^6 (M), 1X concentration determined by ELISA: 3.25 × 10^6 (M)
[1]; 1U:1X ratio 2.00
  [1X] × 10^6 (M), 1X concentration determined by ELISA: 3.60 × 10^6 (M)
[1]; 1U:1X ratio 2.5
  apparent increase of 1X concentration: 22%
[1]; 1U:1X ratio 2.50
  [1X] × 10^6 (M), 1X concentration determined by ELISA: 3.65 × 10^6 (M)
[1]; 1U:1X ratio 3.0
  apparent increase of 1X concentration: 32%
[1]; 1U:1X ratio 3.00
  [1X] × 10^6 (M), 1X concentration determined by ELISA: 3.95 × 10^6 (M)
[1]; 1U:1X ratio 4.00
  [1X] × 10^6 (M), 1X concentration determined by ELISA: 4.20 × 10^6 (M)
[1]; 1U:1X ratio 5.00
  [1X] × 10^6 (M), 1X concentration determined by ELISA: 4.30 × 10^6 (M)
[1]; 1U:1X ratio 6.00
  [1X] × 10^6 (M), 1X concentration determined by ELISA: 4.50 × 10^6 (M)
[1]; 1U:1X ratio 8.00
  [1X] × 10^6 (M), 1X concentration determined by ELISA: 4.30 × 10^6 (M)
[1]
  % Cross-Reaction, 1X-Ab: 11%
[2]
  % Cross-Reaction, AAMU-Ab: 0%

## Cn1cnc2c1c(=O)[nH]c(=O)n2C [3,7-Dimethyl Xanthine (Theobromine), 3,7-Dimethyl Xanthine]
[1]
  % Cross-Reaction, 1X-Ab: 0%
[2]
  % Cross-Reaction, AAMU-Ab: 0%

## Cn1c(=O)[nH]c(=O)c2[nH]cnc21 [3-Methyl Xanthine]
[1]
  % Cross-Reaction, 1X-Ab: 0%
[2]
  % Cross-Reaction, AAMU-Ab: 0%

## CC(=O)Nc1c(N)n(C)c(=O)n(C)c1=O [5-Acetamino-6-amino-1,3-dimethyluracil]
[1]
  % Cross-Reaction, 1X-Ab: 0%
[2]
  % Cross-Reaction, AAMU-Ab: 0%

## CC(=O)Nc1c(N)n(C)c(=O)[nH]c1=O [5-Acetamino-6-amino-1-methyluracil]
[1]
  % Cross-Reaction, 1X-Ab: 0%
[2]
  % Cross-Reaction, AAMU-Ab: 100%

## CC(=O)Nc1c(N)[nH]c(=O)[nH]c1=O [5-Acetamino-6-amino-uracil]
[1]
  % Cross-Reaction, 1X-Ab: 0%
[2]
  % Cross-Reaction, AAMU-Ab: 0.6%

## Cn1cnc2[nH]c(=O)[nH]c(=O)c21 [7-Methyl Xanthine]
[1]
  % Cross-Reaction, 1X-Ab: 0%
[2]
  % Cross-Reaction, AAMU-Ab: 0%

## Cc1nc2[nH]c(=O)[nH]c(=O)c2[nH]1 [8-Methyl Xanthine]
[1]
  % Cross-Reaction, 1X-Ab: 0%
[2]
  % Cross-Reaction, AAMU-Ab: 0%

## COc1ccc2c(c1)[C@]13CCCC[C@@H]1[C@H](C2)N(C)CC3 [Dextromethorphan]
[3]; EMs
  mean performance ±SE: 95±0.5%
[3]; PMs
  mean performance ±SE: 86±6%

## Nc1nc2nc[nH]c2c(=O)[nH]1 [Guanine]
[1]
  % Cross-Reaction, 1X-Ab: 0%
[2]
  % Cross-Reaction, AAMU-Ab: 0%

## O=c1[nH]cnc2nc[nH]c12 [Hypoxanthine]
[1]
  % Cross-Reaction, 1X-Ab: 0%
[2]
  % Cross-Reaction, AAMU-Ab: 0%

## CC(=O)C[C@@H](c1ccccc1)c1c(O)c2ccccc2oc1=O [S-warfarin]
[4]; 47 Japanese, an individual with *3/*3
  ↓ in CLpo,u (unbound oral clearance): 90% ↓ in CLpo,u for (S)-warfarin in an individual
[4]; 86 Japanese, 3 individuals with *1/*3
  ↓ in CLpo,u (unbound oral clearance): 63% ↓ in CLpo,u for (S)-warfarin in 3 individuals

## O=c1cc[nH]c(=O)[nH]1 [Uracil]
[1]
  % Cross-Reaction, 1X-Ab: 0%
[2]
  % Cross-Reaction, AAMU-Ab: 0%

## O=c1[nH]c(=O)c2[nH]c(=O)[nH]c2[nH]1 [Uric acid]
[1]
  % Cross-Reaction, 1X-Ab: 0%
[2]
  % Cross-Reaction, AAMU-Ab: 0%

## O=c1[nH]c(=O)c2[nH]cnc2[nH]1 [Xanthine]
[1]
  % Cross-Reaction, 1X-Ab: 0%
[2]
  % Cross-Reaction, AAMU-Ab: 0^a %

## CC(=O)Oc1ccccc1C(=O)O [aspirin]
[5]
  Coronary artery patency at 18 hours: 52%

## Nc1ccc(S(=O)(=O)c2ccc(N)cc2)cc1 [dapsone]
[6]; fast acetylators
  adverse reactions: 17%
[6]; slow acetylators
  adverse reactions: 46%

## CC(=O)CC(c1ccccc1)c1c(O)c2ccccc2oc1=O (stereo not drawn) [sodium warfarin]
[7]
  rate of recurrent venous thromboembolism: 0%

## Dextran
[8]
  incidence of thrombosis: 30%

## streptokinase
[9]
  combined incidence of death or nonfatal hemorrhagic stroke: 7.5%
[10]; all individuals
  mortality rate: 9.2%
[10]; [13]
  mortality rate: 6.2%
[11]
  cerebral hemorrhage rate: 0.24%
  stroke rate: 1.04%

## tissue plasminogen activator [TPA]
[9]
  combined incidence of death or nonfatal hemorrhagic stroke: 6.6%
[9]; in vivo
  reduction of mortality compared with the streptokinase strategies: 14%
[10]; all individuals
  mortality rate: 8.7%
[10]; [13]
  mortality rate: 5.9%
[11]
  cerebral hemorrhage rate: 0.66%
  excess of episodes of presumed hemorrhagic strokes compared with streptokinase: 4.2 per 1000
  excess of strokes compared with streptokinase: 3.5 per 1000
  stroke rate: 1.39%

## vitamin K
[12]; doses of 5 mg or more
  duration of resistance to warfarin: up to 1 week
[12]; parenteral administration
  time to evident partial reversal of the anticoagulant effect of warfarin: ≤ 6 h
